Data reported in patent US7196105B2, “Treatment of human multiple myeloma by curcumin” (Research Development Foundation, priority 2002, dated 2007).

Columns and labels:
[1] = tested on: U266 cells; test: Cytotoxic effect of vincristine with or without curcumin (MTT); format: cell-based, human; details: vincristine 50 μM alone, 24 h
Procedure: The antiproliferative effects of curcumin against different multiple myeloma cell lines were determined by the MTT dye uptake method as described earlier (Manna et al., 1998). Briefly, cells (5000/well) were incubated in triplicate in a 96-well plate in the presence or absence of indicated test samples in a final volume of 0.1 ml for 24 h at 37° C. Thereafter, 0.025 ml of MTT solution (5 mg/ml in PBS) was added to each well. After a 2 h incubation at 37 ° C., 0.1 ml of extraction buffer (20% SDS, 50% dimethylformamide) was added. Incubation was continued for overnight at 37 ° C., and then the OD at 590 nm was measured using a 96-well multiscanner autoreader (Dynatech MR 5000), with extraction buffer as blank. Percent cell viability=(OD of the experiment samples/OD of the control)×100.

[2] = tested on: p65 subunit of NF-κB; test: Immunocytochemistry for NF-κB p65 localization in multiple myeloma cell lines; format: cell-based, human; details: U266 cells, NBD-peptide 100 μM, 12 h
Procedure: Red stain indicates the localization of p65 and blue stain (Hoechst) indicates nucleus (magnification 200×). […] U266 cells (2×10^6 cells/ml) were treated with indicated concentrations of NEMO-control or NBD-peptide (100 μM) for the indicated times. Nuclear extracts were then checked for the presence of NF-κB DNA-binding activity by EMSA. […] Untreated or NBD-peptide-treated (100 μM; 12 h) U266 cells were cytospun, and p65 immunocytochemistry was performed as described. Red stain indicates the localization of p65 and blue stain indicates nucleus (magnification 200×). […] U266 cells (2×10^6 cells/ml) were treated with indicated concentrations of NEMO-control or NBD-peptide (100 μM) for the indicated time periods, and cell viability was monitored by the trypan blue dye exclusion method. Percent cell killing was determined as: (number of trypan blue stained cells/total cells)×100. […] Stained slides were mounted with mounting medium (Sigma Colo.) and analyzed under an epifluorescence microscope (Labophot-2, Nikon, Tokyo, Japan). […] Cells with nuclear staining of NF-κB p65 or STAT3 were counted separately. One hundred cells were counted for each specimen, and the sample was graded on the basis of a 4-point scale: −, no nuclear positive cells (0%); +, low number of nuclear positive cells (<10%); ++, moderate number of nuclear positive cells (10–50%); +++, high number of nuclear positive cells (>50%).

[3] = tested on: U266 cells; test: Cell viability by trypan blue dye exclusion after NBD peptide treatment; format: cell-based, human; details: NBD peptide 100 μM, 24 h
Procedure: FIG. 8A: U266 cells (2×10^6 cells/ml) were treated with indicated concentrations of NEMO-control or NBD-peptide (100 μM) for the indicated times. Nuclear extracts were then checked for the presence of NF-κB DNA-binding activity by EMSA. FIG. 8B: Untreated or NBD-peptide-treated (100 μM; 12 h) U266 cells were cytospun, and p65 immunocytochemistry was performed as described. Red stain indicates the localization of p65 and blue stain indicates nucleus (magnification 200×). FIG. 8C: U266 cells (2×10^6 cells/ml) were treated with indicated concentrations of NEMO-control or NBD-peptide (100 μM) for the indicated time periods, and cell viability was monitored by the trypan blue dye exclusion method. Percent cell killing was determined as: (number of trypan blue stained cells/total cells)×100.

[4] = tested on: multiple myeloma cell lines MM.1S, RPMI-8226 and U266; details: 50 μM PS-1145; cited from earlier work

CC[C@]1(O)C[C@H]2CN(CCc3c([nH]c4ccccc34)[C@@](C(=O)OC)(c3cc4c(cc3OC)N(C=O)[C@H]3[C@@](O)(C(=O)OC)[C@H](OC(C)=O)[C@]5(CC)C=CCN6CC[C@]43[C@@H]65)C2)C1 [vincristine, reference compound]
killing of U266 cells [1]: minimally effective

NH2-DRQIKIWFQNRRMKWKKTALDWSWLQTE-CONH2 (H-DRQIKIWFQNRRMKWKKTALDWSWLQTE-NH2) [NBD peptide, reference compound]
nuclear pool of the p65 subunit of NF-κB [2]: decrease in the nuclear pool of the p65 subunit of NF-κB
suppression of cell growth [3]: Approximately 32%

O=C(Nc1cc(Cl)cc2c1[nH]c1cnccc12)c1cccnc1 [PS-1145]
inhibition of proliferation [4]: less than 50%
